Experimental data as given in patent US9932392B2, “Prevention of infection” (priority 2012, dated 2018).

Tests used:
[1] = tested on: toxinogenic C. difficile strain 10465; test: Primary prevention of C. difficile infection (mouse model); assay type: in vivo, C57BL/6 mice; conditions: po gavage day -1 to 3 (5 doses), FIG. 6
Method: (§1) C57BL/6 mice were housed in cages with free access to chow (Purina 5000) and tap water. Animals were treated with a mixture of oral antibiotics (kanamycin, gentamicin, colistin, metronidazole, and vancomycin) for 3 days as previously described (Chen et al (2008) Gastroenterology 135: 1984-92). Two days later, they were given parenteral clindamycin phosphate (10 mG/kg s.c.) [Day −1]. One day later [Day 0] they were challenged by gavage with 0.5×10^5 cfu of toxinogenic C. difficile strain 10465. A moderate to fulminant colitis developed 1 to 5 days after the administration of C. difficile. Untreated, this progresses rapidly into severe and fatal colitis in the majority of animals. The test compounds (suspended in carbonate buffer) were administered to groups at the dosage levels as shown in Table 1 (n=10 per group except group 4). Dosing (by gavage) started 1 day before C. difficile challenge [Day −1] and continued daily for 5 days.
(§2) Animals were weighed daily and observed three times daily for morbidity and presence or absence of severe CDI with diarrhea. Animals judged to be in a moribund state [extended period of weight loss progressing to an emaciated state, anorexia for 24-48 hrs, prolonged lethargy (more than 3 days), signs of paralysis, skin erosions or trauma, hunched posture, distended abdomen] were euthanized by a single injection of sodium pentobarbital. […]

[2] = tested on: toxinogenic C. difficile strain 10465; test: Prevention of recurrence of C. difficile infection after vancomycin (mouse model); assay type: in vivo, C57BL/6 mice; conditions: vancomycin day -1 to 3 (5 doses), then Ig 400 mG/kg po day 4 to 8 (5 doses); observation until day 28; FIG. 7
Method: as §1, §2

In the case of `CN[C@H](CC(C)C)C(=O)N[C@H]1C(=O)N[C@@H](CC(N)=O)C(=O)N[C@H]2C(=O)N[C@H]3C(=O)N[C@H](C(=O)N[C@H](C(=O)O)c4cc(O)cc(O)c4-c4cc3ccc4O)[C@H](O)c3ccc(c(Cl)c3)Oc3cc2cc(c3O[C@@H]2O[C@H](CO)[C@@H](O)[C@H](O)[C@H]2O[C@H]2C[C@](C)(N)[C@H](O)[C@H](C)O2)Oc2ccc(cc2Cl)[C@H]1O` [Vancomycin], the “fraction of animals with recurrence of C. difficile infection after stopping treatment” value [1] is reported as 60%, the survival rate ([1]; vancomycin 50 mG/kg, IgA 400 mG/kg) is reported as 40% and the “rate of recurrence of infection (animals)” value [2] is reported as 6 out of 10.
